From patent US8227478B2, “JNK modulators” (Roche Palo Alto LLC, priority 2008, dated 2012) come the findings set out here.

“And” between values parts separate entries of the source, which are not always exact repeats. Equal entries are not always repeated.

Series [1] concerns the target Human JNK1α1 (Homo sapiens, UniProt P45983). The series is described as follows: JNK assay in vitro, phosphorylation of GST-ATF2 (19-96) with [γ-33P] ATP. Format: biochemical. Conditions: Human JNK1α1, 2 nM enzyme, 1 μM ATF2, 6 μM ATP (Km); read-out: JNK1 - IC50. On the procedure:
(§1) JNK activity was measured by phosphorylation of GST-ATF2 (19-96) with [γ-^33P] ATP. The enzyme reaction was conducted at Km concentrations of ATP and the substrate at final volume of 40 μl in buffer containing 25 mM HEPES, pH 7.5, 2 mM dithiothreitol, 150 mM NaCl, 20 mM MgCl2, 0.001% Tween® 20, 0.1% BSA and 10% DMSO. Human JNK2α2 assay contains 1 nM enzyme, 1 μM ATF2, 8 μM ATP with 1 uCi [γ-^33P] ATP. Human JNK1α1 assay contains 2 nM enzyme, 1 μM ATF2, 6 μM ATP with 1 μCi [γ-^33P] ATP. Human JNK3 (Upstate Biotech #14-501M) assay contains 2 nM enzyme, 1 μM ATF2, 4 μM ATP with 1 μCi [γ-^33P] ATP. The enzyme assay was carried out in the presence or absence of several compound concentrations. JNK and compound were pre-incubated for 10 min., followed by initiation of the enzymatic reaction by adding ATP and the substrate. The reaction mixture was incubated at 30° C. for 30 min. At the end of incubation, the reaction was terminated by transferring 25 μl of the reaction mixture to 150 μl of 10% glutathione Sepharose® slurry (Amersham #27-4574-01) containing 135 mM EDTA. The reaction product was captured on the affinity resin, and washed on a filtration plate (Millipore, MABVNOB50) with phosphate buffered saline for six times to remove free radionucleotide. The incorporation of ^33P into ATF2 was quantified on a microplate scintillation counter (Packard Topcount). Compound inhibition potency on JNK was measured by IC50 value generated from ten concentration inhibition curves fitted into the 3-parameter model: % inhibition=Maximum/(1+(IC50/[Inhibitor])^slope). Data were analyzed on Microsoft Excel for parameter estimation.

In series [2] the target is Human JNK2α2 (Homo sapiens, UniProt P45984). The description is as above. In kind it is biochemical. Conditions: Human JNK2α2, 1 nM enzyme, 1 μM ATF2, 8 μM ATP (Km); read-out: JNK2 - IC50. On the procedure:
as §1

Series [3] relates to phospho-c-Jun. The series is described as follows: Phospho-c-Jun translocation assay in TNFα-activated SW1353 cells. The conditions noted are these: Homo sapiens, TNFα 1 ng/ml for 20 min, 30 min compound pre-incubation. Format: cell-based. The text has this: Inflammation is regulated in part by the action of c-Jun on other genes in the inflammatory pathway. Thus, inhibition of phosphorylated c-Jun translocation to the nucleus provides an indication of the anti-inflammatory activity of a compound. SW1353 cells were purchased from the American Tissue Culture Collection and maintained in growth media containing DMEM medium (Invitrogen) with 10% fetal bovine serum (Invitrogen), ascorbic acid (Sigma), and penicillin/streptomycin/[…] (Invitrogen) under culture conditions (at 37° C. with 5% CO2). Cells were plated at a density of 8,000 cells/well in 100 μl growth medium 24 h prior to the compound treatment. Immediately before the compound treatment, growth media was replaced with 90 μl of fresh media. Compound stock at 10 mM was first diluted in compound vehicle (DMSO) to 3 mM, then diluted in serum-free medium and added to each well as a 10× concentrated solution in a volume of 10 μl, mixed, and pre-incubated with cells for 30 min at 37° C. in 5% CO2. Compound vehicle (DMSO) was maintained at a final concentration of 1% for all samples. After 30 min incubation, the cells were activated with TNFα (1 ng/ml, Roche Biochem) for 20 min. Cells were then fixed, permeabilized, and stained with anti-phospho-c-Jun antibody (Santa Cruz), followed by Alexa Fluor 488 labeled secondary antibody and Hoechet 33342 dye (Invitrogen) per manufacturer's instructions. The signals of phospho-c-Jun were measured for 400 cells per well by the ArrayScan HCS system (Cellomic). The IC50 values were calculated as the concentration of the compound at which the phospho-c-Jun activity was inhibited to 50% of the control value using the 4-parameter fitting function in the ActivityBase program (IDBS).

Sequence of Human JNK1α1 (P45983 1-384 isoform P45983-2): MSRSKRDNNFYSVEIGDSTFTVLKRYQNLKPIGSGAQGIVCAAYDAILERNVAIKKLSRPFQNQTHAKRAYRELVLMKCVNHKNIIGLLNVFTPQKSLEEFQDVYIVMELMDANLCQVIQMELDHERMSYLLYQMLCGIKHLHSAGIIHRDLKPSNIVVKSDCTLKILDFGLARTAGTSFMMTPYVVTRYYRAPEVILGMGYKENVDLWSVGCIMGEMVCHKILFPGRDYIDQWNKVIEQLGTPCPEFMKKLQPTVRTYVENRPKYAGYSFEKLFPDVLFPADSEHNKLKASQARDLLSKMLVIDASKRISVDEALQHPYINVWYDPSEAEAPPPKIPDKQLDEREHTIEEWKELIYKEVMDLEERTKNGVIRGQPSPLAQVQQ
Sequence of Human JNK2α2 (P45984 whole entry): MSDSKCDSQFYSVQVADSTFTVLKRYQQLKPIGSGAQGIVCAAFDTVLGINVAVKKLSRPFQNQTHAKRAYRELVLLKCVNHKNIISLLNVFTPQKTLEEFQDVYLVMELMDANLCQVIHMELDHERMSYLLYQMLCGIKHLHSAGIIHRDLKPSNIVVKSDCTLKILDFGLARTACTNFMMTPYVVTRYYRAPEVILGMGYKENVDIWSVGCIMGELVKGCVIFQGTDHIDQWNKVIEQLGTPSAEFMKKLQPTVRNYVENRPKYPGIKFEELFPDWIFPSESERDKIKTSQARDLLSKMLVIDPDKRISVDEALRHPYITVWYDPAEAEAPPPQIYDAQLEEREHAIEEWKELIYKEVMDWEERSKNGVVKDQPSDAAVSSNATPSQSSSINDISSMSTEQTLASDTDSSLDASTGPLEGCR

A word on the IC50: it is the midpoint of a concentration-inhibition curve. In general, melting point refers to the temperature, or range, at which the solid turns liquid. For the compound `Cc1cscc1-c1cccc2c1nnn2-c1ccnc(N[C@H]2CC[C@H](C(=O)N3CCC(O)CC3)CC2)n1` [Compound 1], the melting point fell in the range of 246 to 247 °C. Moreover, the IC50 in series [1] is 0.0028 µM. Further, the IC50 in series [2] was 0.0127 µM. The compound further came in with a concentration for half-maximal inhibition (IC50) in series [3] of 0.703 µM.

Turning to `Cc1ccccc1-c1cccc2c1nnn2-c1ccnc(N[C@H]2CC[C@H](C(=O)N3CCC(O)CC3)CC2)n1` [Compound 2, (4-Hydroxy-piperidin-1-yl)-{4-[4-(4-o-tolyl-benzotriazol-1-yl)-pyrimidin-2-ylamino]-cyclohexyl}-methanone], the melting point is 224 to 226 °C and 224.6 to 225.9 °C. The IC50 in series [1] worked out at 0.0058 µM. Besides, the IC50 in series [2] came out at 0.0199 µM. The IC50 in series [3] was determined as 0.678 µM.

With `Cc1ccncc1-c1cccc2c1nnn2-c1ccnc(N[C@H]2CC[C@H](C(=O)N3CCC(O)CC3)CC2)n1` [Compound 3, (4-Hydroxy-piperidin-1-yl)-(4-{4-[4-(4-methylpyirin-3-yl)-benzotriazol-1-yl]-pyrimidin-2-ylamino}-cyclohexyl)-methanone], the melting point lay in the range of 194.3 to 218.2 °C. For the same compound, the IC50 in series [1] stood at 0.0275 µM. In series [2], the IC50 turned out to be 0.0904 µM. Also, the IC50 in series [3] amounted to 2.82 µM.

For `Cc1noc(C)c1-c1cccc2c1nnn2-c1ccnc(N[C@H]2CC[C@H](C(=O)N3CCC(O)CC3)CC2)n1` [Compound 4, (4-{4-[4-(3,5-Dimethylisoxazol-4-yl)-benzotriazol-1-yl]-pyrimidin-2-ylamino}-cyclohexyl)-(4-hydroxy-piperidin-1-yl)-methanone], the melting point was over 300 °C. Also, the IC50 in series [1] worked out at 0.0432 µM. The IC50 in series [2] was 0.105 µM. Further, the midpoint of inhibition in series [3], the IC50, lay at 2.58 µM.

Consider `Cc1cscc1-c1cccc2c1nnn2-c1ccnc(NC2CCN(S(C)(=O)=O)CC2)n1` [Compound 5, (1-Methanesulfonyl-piperidin-4-yl)-{4-[4-(4-methyl-thiophen-3-yl)-benzotriazol-1-yl]-pyrimidin-2-yl}-amine], for which the IC50 is 0.0036 µM in series [1], 0.0178 µM in series [2] and 13.9 µM in series [3].

Turning to `O=C([C@H]1CC[C@H](Nc2nccc(-n3nnc4c(-c5ccsc5)cccc43)n2)CC1)N1CCC(O)CC1` [Compound 6, (4-Hydroxy-piperidin-1-yl)-{4-[4-(4-thiophen-3-ylbenzotriazol-1-yl)-pyrimidin-2-ylamino]-cyclohexyl}-methanone], the melting point lay in the range of 233 to 234 °C. The IC50 in series [1] turned out to be 0.0203 µM. Besides, the IC50 in series [2] was 0.0678 µM. In addition, the IC50 in series [3] came out at 3.3 µM.

In the case of `Cc1cscc1-c1cccc2c1ccn2-c1ccnc(N[C@H]2CC[C@H](C(=O)N3CCC(O)CC3)CC2)n1` [Compound 7, (4-Hydroxy-piperidin-1-yl)-(4-{4-[4-(4-methyl-thiophen-3-yl)-indol-1-yl]-pyrimidin-2-ylamino}-cyclohexyl)-methanone], the melting point is 168 to 188 °C. Moreover, the IC50 in series [1] stood at 0.0331 µM. In series [2], the IC50 was found to be 0.0987 µM. Half-maximal inhibition in series [3] (IC50) required 8.37 µM.

With `O=C([C@H]1CC[C@H](Nc2nccc(-n3nnc4c(-c5ccncc5)cccc43)n2)CC1)N1CCC(O)CC1` [Compound 8], the melting point was 266 to 267 °C. Further, the IC50 in series [1] worked out at 0.0287 µM. Moreover, in series [2], the IC50 came to 0.0912 µM. The compound further gave an IC50 in series [3] of 5.81 µM.

The compound `O=C([C@H]1CC[C@H](Nc2nccc(-n3nnc4c(-c5ccoc5)cccc43)n2)CC1)N1CCC(O)CC1` [Compound 9, {4-[4-(4-Furan-3-yl-benzotriazol-1-yl)-pyrimidin-2-ylamino]-cyclohexyl}-(4-hydroxy-piperidin-1-yl)-methanone] yielded a melting point of 243 to 244 °C. Besides, in series [1], the IC50 was determined as 0.0397 µM. Besides, the IC50 in series [2] was found to be 0.13 µM. In series [3], the IC50 was at least 30 µM.

For the compound `Cc1n[nH]cc1-c1cccc2c1nnn2-c1ccnc(NC2CCN(S(C)(=O)=O)CC2)n1` [Compound 10, (1-Methanesulfonyl-piperidin-4-yl)-{4-[4-(3-methyl-1H-pyrazol-4-yl)-benzotriazol-1-yl]-pyrimidin-2-yl}-amine], the melting point is 231 to 232 °C. In addition, in series [1], the IC50 stood at 0.003 µM. Also, the IC50 in series [2] amounted to 0.014 µM. In series [3], this compound displayed a concentration for half-maximal inhibition (IC50) of 2.16 µM.

In the case of `Cc1n[nH]cc1-c1cccc2c1nnn2-c1ccnc(N[C@H]2CC[C@H](C(=O)N3CCC(O)CC3)CC2)n1` [Compound 11, (4-Hydroxy-piperidin-1-yl)-(4-{4-[4-(3-methyl-1H-pyrazol-4-yl)-benzotriazol-1-yl]-pyrimidin-2-ylamino}-cyclohexyl)-methanone], the half-inhibitory concentration (IC50) in series [1] came out at 0.0052 µM; in series [2], 0.0186 µM; in series [3], 0.434 µM.

The compound `Cc1n[nH]cc1-c1cccc2c1ccn2-c1ccnc(N[C@H]2CC[C@H](C(=O)N3CCC(O)CC3)CC2)n1` [Compound 12, (4-Hydroxy-piperidin-1-yl)-(4-{4-[4-(3-methyl-1H-pyrazol-4-yl)-indol-1-yl]-pyrimidin-2-ylamino}-cyclohexyl)-methanone] returned a melting point of 215 to 220 °C. Besides, the IC50 in series [1] amounted to 0.0317 µM. Besides, in series [2], the IC50 amounted to 0.121 µM. This compound also had an IC50 in series [3] of 2.59 µM.

Turning to `Cc1noc(C)c1-c1cccc2c1ccn2-c1ccnc(N[C@H]2CC[C@H](C(=O)N3CCC(O)CC3)CC2)n1` [Compound 13, (4-{4-[4-(3,5-Dimethyl-isoxazol-4-yl)-indol-1-yl]-pyrimidin-2-ylamino}-cyclohexyl)-(4-hydroxy-piperidin-1-yl)-methanone], the IC50 was found to be 0.0484 µM in series [1] and 0.225 µM in series [2].

Take `Cc1ccncc1-c1cccc2c1ccn2-c1ccnc(N[C@H]2CC[C@H](C(=O)N3CCC(O)CC3)CC2)n1` [Compound 14, (4-Hydroxy-piperidin-1-yl)-(4-{4-[4-(4-methyl-pyridin-3-yl)-indol-1-yl]-pyrimidin-2-ylamino}-cyclohexyl)-methanone]: the melting point fell in the range of 176 to 178 °C. For the same compound, the IC50 in series [1] is 0.0877 µM. Besides, the IC50 in series [2] turned out to be 0.341 µM.

For the compound `Cc1ccccc1-c1cccc2c1ccn2-c1ccnc(N[C@H]2CC[C@H](C(=O)N3CCC(O)CC3)CC2)n1` [Compound 15, (4-Hydroxy-piperidin-1-yl)-{4-[4-(4-o-tolyl-indol-1-yl)-pyrimidin-2-ylamino]-cyclohexyl}-methanone], the melting point was 158 to 160 °C. The IC50 in series [1] was 0.0647 µM. Also, the IC50 in series [2] is 0.22 µM.

The compound `O=C([C@H]1CC[C@H](Nc2nccc(-n3ccc4c(-c5ccccc5)cccc43)n2)CC1)N1CCC(O)CC1` [Compound 17, (4-Hydroxy-piperidin-1-yl)-{4-[4-(4-phenyl-indol-1-yl)-pyrimidin-2-ylamino]-cyclohexyl}-methanone] had a melting point of 190 to 191 °C. Further, in series [1], the IC50 came out at 0.262 µM. The IC50 in series [2] is 0.856 µM.

In turn, `O=C([C@H]1CC[C@H](Nc2nccc(-n3ccc4c(-c5ccsc5)cccc43)n2)CC1)N1CCC(O)CC1` [Compound 18, (4-hydroxy-piperidin-1-yl)-{4-[4-(4-thiophen-3-yl-indol-1-yl)-pyrimidin-2-ylamino]-cyclohexyl}-methanone] returned a melting point of 171 to 172 °C. The IC50 in series [1] turned out to be 0.0479 µM. The IC50 in series [2] worked out at 0.189 µM.
